Experimental data reported in patent publication US10202349B2, “Asymmetric bis-acridines with antitumour activity and their uses” (POLITECHNIKA GDAŃSKA, priority 2015, dated 2019).

What was measured:
Test in all cases: Cytotoxic activity in vitro, SRB
Format in all cases: cell-based, human
DU-145 = test system: DU-145
Protocol: (§1) Cytotoxic activity tests in-vitro. A measure of the cytotoxic activity of bis-acridines are the EC50 (concentration of studied compounds at which 50% inhibition of proliferation of tumorous is observed) of the evaluated compounds that inhibit the growth of 50% of cells in relation to a control. The cytotoxic activity of the compounds was determined using SRB, recommended by the US National Cancer Institute (USA). As the spectrum of 13 human origin neoplasms in bis-acridine screening studies, we used the following: HT 29 [CRC], HCT 116 [CRC], H 460 [lung cancer], MDA MB 231 [breast cancer], MCF-7 [breast cancer], UM UC3 [bladder cancer], PC 3 [prostate cancer], DU 145 [ prostate cancer], Panc-1 [pancreatic cancer], Mia Pa Ca 2 [pancreatic cancer], BXPC 3 [pancreatic cancer], AsPC1 [pancreatic cancer], Capan-2 [pancreatic cancer]. […] The DU-145 results were substantially a basis for selecting compounds and neoplasms for screening. The next neoplasms most sensitive to the cytotoxic activity of bis-acridines was the CRC HCT-116, as well as breast cancer MBA-MB-231. […] The cytotoxic activity of the remaining bis-acridines is significant or high (EC50 in the range from 1 to 0.04 μM). […] Panc-1, MiaPaCa-2 and Capan-2 are more sensitive, whereas for AsPC-1 and BxPC-3 this activity is at least an order of magnitude smaller.

HT-29 = test system: HT-29
Protocol: as §1

H-460 = test system: H-460
Protocol: as §1

HCT-116 = test system: HCT-116
Protocol: as §1

UM-UC-3 = test system: UM-UC-3
Protocol: as §1

PANC-1 = test system: PANC-1
Protocol: as §1

MiaPaCa-2 = test system: MiaPaCa-2
Protocol: as §1

MCF-7 = test system: MCF-7
Protocol: as §1

Compound: Cc1ccc([N+](=O)[O-])c2c(NCCNCCNc3ccc(C)c4[nH]c5ccccc5c(=O)c34)c3ccccc3nc12 [C-2016, 9-{N-[(4-methyl-9(10H)-acridono-1-yl)aminoethyl]ethylamino}-4′-methyl-1′-nitroacridine]
- EC50 (DU-145): 599 nM
- EC50 (HT-29): 413 nM

Compound: Cc1ccc([N+](=O)[O-])c2c(NCCCN(C)CCCNc3ccc([N+](=O)[O-])c4[nH]c5ccc(O)cc5c(=O)c34)c3ccccc3nc12 [C-2019, 9-{N-[(7-hydroxy-4-nitro-9(10H)acridono-1-yl)aminopropyl]-N-methylaminopropylamino}-4′-methyl-1′-nitroacridine]
- EC50 (H-460): 46 nM
- EC50 (DU-145): 73 nM
- EC50 (HT-29): 200 nM

Compound: Cc1ccc([N+](=O)[O-])c2c(NCCCN3CCN(CCCNc4ccc([N+](=O)[O-])c5[nH]c6ccc(O)cc6c(=O)c45)CC3)c3ccccc3nc12 [C-2020]
- EC50 (H-460): 47 nM
- EC50 (DU-145): 61 nM
- EC50 (HT-29): 233 nM

Compound: Cc1ccc([N+](=O)[O-])c2c(NCCCNCCCNc3ccc([N+](=O)[O-])c4[nH]c5ccc(O)cc5c(=O)c34)c3ccccc3nc12 [C-2021, 9-{N-[(7-hydroxy-4-nitro-9(10H)acridono-1-yl)aminopropyl]-aminopropylamino}-4′-methyl-1′-nitroacridine]
- EC50 (HCT-116): 88 nM
- EC50 (H-460): 73 nM
- EC50 (DU-145): 78 nM
- EC50 (HT-29): 129 nM

Compound: Cc1ccc([N+](=O)[O-])c2c(NCCCN(C)CCCNc3ccc(C)c4[nH]c5ccccc5c(=O)c34)c3ccccc3nc12 [C-2023, 9-{N-[(4-methyl-9(10H)-acridono-1-yl)aminopropyl]-N-methylaminopropylamino}-4′-methyl-1′-nitroacridine]
- EC50 (HCT-116): 120 nM
- EC50 (H-460): 71 nM
- EC50 (DU-145): 190 nM
- EC50 (HT-29): 123 nM

Compound: Cc1ccc([N+](=O)[O-])c2c(NCCNCCNCCNc3ccc(C)c4[nH]c5ccccc5c(=O)c34)c3ccccc3nc12 [C-2024, 9-[N-(4-methyl-9(10H)acridono-1-yl)-aminoethylaminoethylamino-ethylamino]-4′-methyl-1′-nitroacridine]
- EC50 (HCT-116): 1270 nM
- EC50 (H-460): 370 nM
- EC50 (DU-145): 417 nM
- EC50 (HT-29): 1180 nM

Compound: Cc1ccc([N+](=O)[O-])c2c(NCCNCCNCCNc3ccc([N+](=O)[O-])c4[nH]c5ccccc5c(=O)c34)c3ccccc3nc12 [C-2032, 9-[N-(4-nitro-9(10H)acridono-1-yl)-aminoethylaminoethylamino-ethylamino]-4′-methyl-1′-nitroacridine]
- EC50 (HCT-116): 850 nM
- EC50 (UM-UC-3): 730 nM
- EC50 (PANC-1): 1310 nM
- EC50 (DU-145): 1690 nM

Compound: Cc1ccc(NCCCNCCCNc2c3ccccc3nc3cccc([N+](=O)[O-])c23)c2c(=O)c3ccccc3[nH]c12 [C-2038, 9-{N-[(4-methyl-9(10H)-acridono-1-yl)aminopropyl]propylamino}-1′-nitroacridine]
- EC50 (MiaPaCa-2): 280 nM
- EC50 (MCF-7): 228 nM
- EC50 (PANC-1): 377 nM
- EC50 (DU-145): 184 nM

Compound: Cc1ccc([N+](=O)[O-])c2c(NCCCNCCNCCCNc3ccc([N+](=O)[O-])c4[nH]c5ccccc5c(=O)c34)c3ccccc3nc12 [C-2039, 9-[N-(4-nitro-9(10H)acridono-1-yl)-aminopropylaminoethylamino-propylamino]-4′-methyl-1′-nitroacridine]
- EC50 (MiaPaCa-2): 110 nM
- EC50 (PANC-1): 142 nM
- EC50 (DU-145): 88 nM

Compound: O=c1c2ccccc2[nH]c2c([N+](=O)[O-])ccc(NCCCNCCNCCCNc3c4ccccc4nc4cccc([N+](=O)[O-])c34)c12 [C-2040, 9-[N-(4-nitro-9(10H)acridono-1-yl)-aminopropylaminoethylamino-propylamino]-1′-nitroacridine]
- EC50 (MiaPaCa-2): 46 nM
- EC50 (PANC-1): 60 nM
- EC50 (DU-145): 55 nM

Compound: O=c1c2cc(O)ccc2n2nnc3ccc(NCCCN4CCN(CCCNc5c6ccccc6nc6cccc([N+](=O)[O-])c56)CC4)c1c32 [C-2047, 1-[3-(8-hydroxy-6H-[1,2,3]triazolo[4,5,1-de]-acridin-6-on-5-yl)aminopropyl]-4-[3′-(1′-nitroacridin-1-yl)-aminopropyl]piperazine]
- EC50 (HCT-116): 17 nM
- EC50 (H-460): 36 nM
- EC50 (DU-145): 17 nM
- EC50 (HT-29): 29 nM

Compound: Cc1ccc([N+](=O)[O-])c2c(NCCCN(C)CCCNc3ccc4nnn5c6ccc(O)cc6c(=O)c3c45)c3ccccc3nc12 [C-2056, 9-{N-5-[(8-hydroxy-6H-[1,2,3]triazolo[4,5,1-de]-acridin-6-on-5-yl)aminopropyl]-N-methylaminopropylamino}-4′-methyl-1′-nitroacridine]
- EC50 (DU-145): 38 nM

Compound: Cc1ccc([N+](=O)[O-])c2c(NCCCN3CCN(CCCNc4ccc5nnn6c7ccc(O)cc7c(=O)c4c56)CC3)c3ccccc3nc12 [C-2057, 1-[3-(8-hydroxy-6H-[1,2,3]triazolo[4,5,1-de]-acridin-6-on-5-yl)aminopropyl]-4-[3′-(4′-methyl-1′-nitroacridin-1-yl)-aminopropyl]piperazine]
- EC50 (DU-145): 34 nM

Compound: Cc1ccc([N+](=O)[O-])c2c(NCCCN3CCN(CCCNc4ccc5nnn6c7ccccc7c(=O)c4c56)CC3)c3ccccc3nc12 [C-2058]
- EC50 (DU-145): 42 nM

Compound: CN(CCCNc1c2ccccc2nc2cccc([N+](=O)[O-])c12)CCCNc1ccc2nnn3c4ccccc4c(=O)c1c23 [C-2060, 9-{N-5-[(6H-[1,2,3]triazolo[4,5,1-de]-acridin-6-on-5-yl)aminopropyl]-N-methylaminopropylamino}-1′-nitroacridine]
- EC50 (H-460): 185 nM
- EC50 (DU-145): 150 nM

Compound: O=c1c2ccccc2n2nnc3ccc(NCCCNCCCNc4c5ccccc5nc5cccc([N+](=O)[O-])c45)c1c32 [C-2063, 9-{N-5-[(6H-[1,2,3]triazolo[4,5,1-de]-acridin-6-on-5-yl)aminopropyl]-aminopropylamino}-1′-nitroacridine]
- EC50 (H-460): 24 nM
- EC50 (DU-145): 4.6 nM
